For the assay, the system named is hypercholesterolemic patients. In words: 8-week, randomized, double-blind, active-controlled, parallel-group study of vascular markers in hypercholesterolemic patients. Format: in vivo, human. Here is the method: This was a 8-week, randomized, double-blind, active-controlled, parallel-group study. All patients provided written, informed consent before the start of the study.
Patients, investigator staff, persons performing the assessment, and data analysts remained blinded to the identity of the treatment from the time of randomization until data base lock. Treatments were all identical in packaging, labeling, schedule of administration and appearance. Treatments were administered to patients via a single pill.
20 hypercholesterolemic patients, ≧45 years old, were compared in this study. Patients were classified into one of four groups, consisting of five patients in each group.
Group I was treated with a single daily dose of simvastatin alone (20 mg). Group II was treated with a single daily dose simvastatin (20 mg) and acetylsalicylic acid (75 mg). Group III was treated with a single daily dose of simvastatin (20 mg) and enalapril (10 mg). Group IV was treated with a single daily dose of simvastatin (20 mg), acetylsalicylic acid (75 mg), and enalapril (10 mg). All patients were treated for eight weeks.
The primary efficacy variable was the change from the baseline to the final assessment in vascular markers of LDL-Cholesterol (LDL-C), C Reactive Protein (CRP), Interleukin 6 (IL-6), Systolic Blood Pressure (SBP), and nitric oxide (NO).

The mark [1] stands for this setting: change from baseline to final, eight weeks.
[2] abbreviates: final assessment after eight weeks, single daily oral dose.

Regarding `CCC(C)(C)C(=O)O[C@H]1C[C@@H](C)C=C2C=C[C@H](C)[C@H](CC[C@@H]3C[C@@H](O)CC(=O)O3)[C@H]21` [Simvastatin alone, simvastatin], under “baseline, before treatment”, the “IL-6 Baseline” value was 4.6 pg/mL, the “Nitric oxide Baseline” value was 87 µmol/L and the “SBP Baseline” value amounted to 142 mmHg. In addition, the “LDL-C Baseline” value (baseline, before treatment, five patients per group) amounted to 159 mg/dL. For the same molecule, under setting [1], the “CRP % Δ” value is −18%, the “IL-6 % Δ” value is given as −39%, the “LDL-C % Δ” value was −38% and the “Nitric oxide % Δ” value was −9%. The “SBP % Δ” value under setting [1] was −0.8%. Further, under setting [2], the “IL-6 Final” value is 2.8 pg/mL, the “LDL-C Final” value was 99 mg/dL, the “Nitric oxide Final” value was determined as 79 µmol/L and the “SBP Final” value came out at 141 mmHg.

The values are drawn from patent US20100234442A1, “Compositions and Methods for Treatment and Prevention of Cardiovascular Disease” (Nucitec S.A. de C.V., priority 2009, published 2010).
